Laboratory results published in US6602908B2, “Suppression of carcinoma using high purity conjugated fatty acid” (priority 1999, dated 2003).

Key:
breast cancer = settings: mice; cited from earlier work
mammary adenocarcinomas = experiment: Development of mammary tumors in laboratory animals fed dietary CLA; format: in vivo; settings: for reduction in the total number of mammary adenocarcinomas: laboratory animals
From the text: The synthetically prepared conjugated linoleic acid (CLA) is an effective agent in inhibiting the development of mammary tumors. Laboratory animals fed a diet comprising 0.5%, 1%, or 1.5% by weight conjugated linoleic acid (CLA) have been seen to have a reduction in the total number of mammary adenocarcinomas, in the range of about 30%, 55%, and 60%, respectively. […] Final tumor incidence and cumulative tumor weights are diminished with the administration of a therapeutically effective amount of the purified conjugated linoleic acid (CLA).

Carcinogenesis = settings: in vivo; cited from earlier work
[1] = therapeutically effective amount of purified CLA

Row | Molecule | effect on breast cancer (breast cancer) | inhibition of mammary cancer and protection against subsequent tumor occurrence (mammary adenocarcinomas; dietary CLA between 0.1 and 0.5% by weight) | reduction in the total number of mammary adenocarcinomas (mammary adenocarcinomas; diet comprising 0.5% by weight CLA) | reduction in the total number of mammary adenocarcinomas (mammary adenocarcinomas; diet comprising 1% by weight CLA) | reduction in the total number of mammary adenocarcinomas (mammary adenocarcinomas; diet comprising 1.5% by weight CLA) | cumulative tumor weights (mammary adenocarcinomas; [1]) | final tumor incidence (mammary adenocarcinomas; [1]) | effect on Carcinogenesis (Carcinogenesis)
1 | conjugated linoleic acid [CLA] | preventive effects | dose-dependent inhibition | about 30% | ~55% | ~60% | diminished | diminished | –
2 | CCCCC/C=C\C/C=C\CCCCCCCC(=O)O [Linoleic acid, 9-cis, 12-cis octadecadienoic acid] | – | – | – | – | – | – | – | enhance Carcinogenesis
